Results taken from PubChem BioAssay AID2060495 (Molecular Pharmacology Branch, DTP, NCI, 2025).

Test system: 521955-158-R2-J5-PDC complex spheroid viability
Assay: Anticancer human tumor 521955-158-R2-J5-PDC patient-derived pancreatic carcinoma cell line growth inhibition [GQUAD]
Conditions: for IC50: curve of first compound; for viability, T/C: stronger effect = lower value; active = viability on the fitted dose curve at most 10% of control; inactive = the rest
From the text: DNA G-quadruplex Stabilizer Agents in Combinations in Complex Spheroids
A high-throughput screen of multi-cell type tumor spheroids was designed to identify active combinations of DNA G-quadruplex stabilizer agents and targeted small molecules. Complex spheroids include a stromal component modeled by human endothelial cells (HUVEC) and fibroblasts modeled by human mesenchymal stem cells (MSCs). The concentration ranges selected for each drug and investigational agent were based upon clinically achievable concentrations if the clinical Cmax of the agent was known.
Compounds. The drugs and investigational agents: pidnarulex (CX-5461; NSC782164), APTO-253 (NSC789042), BRACO-19 (NSC847499), peposertib (NSC802822), ceralasertib (NSC780249), elimusertib (NSC800525), camonsertib (NSC841442), AZD-1390 (NSC803789), olaparib (NSC753686), talazoparib (NSC767125), ART-558 (NSC835418), sotorasib (NSC818433), MRTX-1133 (NSC836407), SN-38 (NSC673596), topotecan (NSC609699), etoposide (NSC141540), doxorubicin (NSC123127), gemcitabine (NSC613327), 5-fluorouracil (NSC19893), paclitaxel (NSC125973), vemurafenib (NSC761431), panobinostat (NSC761190), R-306465 (JNJ-16241199; NSC773264), adavosertib (NSC754352), TP-3654 (NSC805149), carboplatin (NSC241240), KSQ-4279 (NSC840948), and staurosporine (NSC755774) were obtained from the National Cancer Institute (NCI) Developmental Therapeutics Program Chemical Repository (34). The FDA-approved anticancer drug set is available from the NCI Developmental Therapeutics Program. […] The stock solutions were prepared in dimethyl sulfoxide (DMSO, Sigma-Aldrich, St. Louis, MO, cat. D2650) at 800-fold the tested concentration and stored at -70 degrees C prior to their use. All drugs and investigational agents were tested over a range starting from a high concentration at or near the clinical Cmax and decreasing in half-log increments. If the clinical Cmax for an agent had not been determined, the highest concentration tested was 10 microM.
2.3 Cell Culture. All cells were maintained in an incubator at 37 degrees C and 5% CO2 with 95% humidity. The PDC lines were cultured according to standard operating procedures established by the NCI PDMR. All PDCs were thawed and cultured in Matrigel-coated flasks prepared with a working solution of 1X Ham's F-12 nutrient mix, without supplementation (Invitrogen, cat. 11765054), 100 U/mL penicillin-streptomycin (Invitrogen, cat. 15140122), and 2.5% Matrigel (Corning Inc., cat. 354248) for the first three passages. The 857933-349-R-J2-PDC line was cultured in 6C/Colon 1B media, which includes advanced DMEM/F-12 (Thermo Fisher Scientific, cat. 12634028), 10 mM HEPES (Thermo Fisher Scientific, cat. 15630080), 1X GlutaMAX supplement (Thermo Fisher Scientific, cat. 35050061), 0.1 mg/mL primocin (InvivoGen, cat. ant-pm-2), 10% defined fetal bovine serum, heat inactivated (HyClone Laboratories Inc., cat. SH30070.03HI), 50% L-WRN conditioned media (ATCC, cat. CRL-3276), 1.25 mM N-Acetyl-L-cysteine (Sigma-Aldrich, cat. A9165), 10 mM nicotinamide (Sigma-Aldrich, cat. N0636), 1X B-27 supplement (Thermo Fisher Scientific, cat. 17504044), 1X N-2 supplement (Thermo Fisher Scientific, cat. 17502048), 10 microM Y-27632 dihydrochloride (Tocris Bioscience, cat. 1254), and 50 ng/mL human EGF recombinant protein (Thermo Fisher Scientific, cat. PHG0311). The 485176-168-R4-J1-PDC line was cultured in Panc media, which includes all 6C/Colon 1B media components plus 100 ng/mL human FGF-10 (Thermo Fisher Scientific, cat. 100-26), 500 nM SB-431542 (Selleckchem, cat. S1067), and gastrin (Tocris, cat. 3006).
[…]

[1] = second compound 0.0316 µM, first compound 0.0316 µM
[2] = second compound 0.0316 µM, first compound 0.1 µM
[3] = second compound 0.0316 µM, first compound 0.316 µM
[4] = second compound 0.0316 µM, first compound 1 µM
[5] = second compound 0.0316 µM, first compound 3.16 µM
[6] = second compound 0.0316 µM, first compound 10 µM
[7] = second compound 0.1 µM, first compound 0.0316 µM
[8] = second compound 0.1 µM, first compound 0.1 µM
[9] = second compound 0.1 µM, first compound 0.316 µM
[10] = second compound 0.1 µM, first compound 1 µM
[11] = second compound 0.1 µM, first compound 3.16 µM
[12] = second compound 0.1 µM, first compound 10 µM
[13] = second compound 0.316 µM, first compound 0.0316 µM
[14] = second compound 0.316 µM, first compound 0.1 µM
[15] = second compound 0.316 µM, first compound 0.316 µM
[16] = second compound 0.316 µM, first compound 1 µM
[17] = second compound 0.316 µM, first compound 3.16 µM
[18] = second compound 0.316 µM, first compound 10 µM
[19] = second compound 1 µM, first compound 0.0316 µM
[20] = second compound 1 µM, first compound 0.1 µM
[21] = second compound 1 µM, first compound 0.316 µM
[22] = second compound 1 µM, first compound 1 µM
[23] = second compound 1 µM, first compound 3.16 µM
[24] = second compound 1 µM, first compound 10 µM
[25] = second compound 3.16 µM, first compound 0.0316 µM
[26] = second compound 3.16 µM, first compound 0.1 µM
[27] = second compound 3.16 µM, first compound 0.316 µM
[28] = second compound 3.16 µM, first compound 1 µM
[29] = second compound 3.16 µM, first compound 3.16 µM
[30] = second compound 3.16 µM, first compound 10 µM
[31] = second compound 10 µM, first compound 0.0316 µM
[32] = second compound 10 µM, first compound 0.1 µM
[33] = second compound 10 µM, first compound 0.316 µM
[34] = second compound 10 µM, first compound 1 µM
[35] = second compound 10 µM, first compound 3.16 µM
[36] = second compound 10 µM, first compound 10 µM
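Note: spheroids exposed to agents for one week before reading.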

CC1COCCN1c1cc(C2(O)CC3CCC(C2)O3)c2cnn(-c3ccn[nH]3)c2n1 (stereo unspecified) + CN(C)c1ccc(Nc2c3ccc(NC(=O)CCN4CCCC4)cc3nc3cc(NC(=O)CCN4CCCC4)ccc23)cc1
< 0.0316 µM: IC50 (second compound 3.16 µM) | IC50 (second compound 10 µM)
0.0361 µM: IC50 (second compound 1 µM)
0.0316 µM: IC50 (second compound 0.316 µM)
inactive: viability, T/C [1] 60.7% | viability, T/C [2] 20.8% | viability, T/C [3] 22.1% | viability, T/C [4] 27.8% | viability, T/C [5] 32.3% | viability, T/C [6] 20.1% | viability, T/C [7] 52.4% | viability, T/C [8] 18.3% | viability, T/C [9] 24% | viability, T/C [10] 26.1% | viability, T/C [11] 32.9% | viability, T/C [12] 19.2% | viability, T/C [13] 50.1% | viability, T/C [14] 20.1% | viability, T/C [15] 23.8% | viability, T/C [16] 31.3% | viability, T/C [17] 31.9% | viability, T/C [18] 19.6% | viability, T/C [19] 53.5% | viability, T/C [20] 17.6% | viability, T/C [21] 17.9% | viability, T/C [22] 26.4% | viability, T/C [23] 37.4% | viability, T/C [24] 14.2% | viability, T/C [25] 47% | viability, T/C [26] 21.5% | viability, T/C [27] 18.9% | viability, T/C [28] 27.6% | viability, T/C [29] 34.1% | viability, T/C [30] 17.2% | viability, T/C [31] 49.3% | viability, T/C [32] 30.1% | viability, T/C [33] 27.9% | viability, T/C [34] 25.3% | viability, T/C [35] 28.4% | viability, T/C [36] 13.3%
0.0446 µM: IC50 (second compound 0.0316 µM)
0.0351 µM: IC50 (second compound 0.1 µM)

COc1ccc([C@@H](O)c2cc(-c3ncnc4cc(N5CCOCC5)ccc34)c(F)cc2Cl)nn1 + CN(C)c1ccc(Nc2c3ccc(NC(=O)CCN4CCCC4)cc3nc3cc(NC(=O)CCN4CCCC4)ccc23)cc1
5.61 µM: IC50 (second compound 0.1 µM)
7.26 µM: IC50 (second compound 0.0316 µM)
6.45 µM: IC50 (second compound 0.316 µM)
2 µM: IC50 (second compound 10 µM)
2.5 µM: IC50 (second compound 3.16 µM)
5.52 µM: IC50 (second compound 1 µM)
inactive: viability, T/C [1] 91.8% | viability, T/C [2] 107% | viability, T/C [3] 91.8% | viability, T/C [4] 78.9% | viability, T/C [5] 68.3% | viability, T/C [6] 43.3% | viability, T/C [7] 94.2% | viability, T/C [8] 96.8% | viability, T/C [9] 92.3% | viability, T/C [10] 83.9% | viability, T/C [11] 60% | viability, T/C [12] 39.9% | viability, T/C [13] 88.9% | viability, T/C [14] 105% | viability, T/C [15] 106% | viability, T/C [16] 77.8% | viability, T/C [17] 66.5% | viability, T/C [18] 41% | viability, T/C [19] 87.4% | viability, T/C [20] 101% | viability, T/C [21] 83% | viability, T/C [22] 72.4% | viability, T/C [23] 59.2% | viability, T/C [24] 41.5% | viability, T/C [25] 66.4% | viability, T/C [26] 83.1% | viability, T/C [27] 74.9% | viability, T/C [28] 73.7% | viability, T/C [29] 44% | viability, T/C [30] 28.8% | viability, T/C [31] 59.8% | viability, T/C [32] 55.6% | viability, T/C [33] 71.3% | viability, T/C [34] 54.9% | viability, T/C [35] 45.1% | viability, T/C [36] 16.7%

O=C(c1cc(Cc2n[nH]c(=O)c3ccccc23)ccc1F)N1CCN(C(=O)C2CC2)CC1 + CN(C)c1ccc(Nc2c3ccc(NC(=O)CCN4CCCC4)cc3nc3cc(NC(=O)CCN4CCCC4)ccc23)cc1
inactive: viability, T/C [1] 93.1% | viability, T/C [2] 85.2% | viability, T/C [3] 94% | viability, T/C [4] 83.5% | viability, T/C [5] 97.1% | viability, T/C [6] 85.5% | viability, T/C [7] 94.4% | viability, T/C [8] 89.4% | viability, T/C [9] 97.5% | viability, T/C [10] 86.6% | viability, T/C [11] 88.3% | viability, T/C [12] 71.9% | viability, T/C [13] 93% | viability, T/C [14] 90.9% | viability, T/C [15] 91% | viability, T/C [16] 85.4% | viability, T/C [17] 92.6% | viability, T/C [18] 84.1% | viability, T/C [19] 90% | viability, T/C [20] 82.7% | viability, T/C [21] 92.3% | viability, T/C [22] 84.5% | viability, T/C [23] 102% | viability, T/C [24] 72.8% | viability, T/C [25] 75.4% | viability, T/C [26] 90.5% | viability, T/C [27] 67.1% | viability, T/C [28] 77.4% | viability, T/C [29] 80% | viability, T/C [30] 71.5% | viability, T/C [31] 57% | viability, T/C [32] 64.5% | viability, T/C [33] 68.7% | viability, T/C [34] 56.5% | viability, T/C [35] 48.7% | viability, T/C [36] 63%
> 10 µM: IC50 (second compound 0.0316 µM) | IC50 (second compound 0.1 µM) | IC50 (second compound 0.316 µM) | IC50 (second compound 1 µM) | IC50 (second compound 3.16 µM) | IC50 (second compound 10 µM)
